Test results published in patent publication US20250250303A1 (THE TRUSTEES OF COLUMBIA UNIVERSITY IN THE CITY OF NEW YORK, priority 2022, published 2025).
“Also recorded” adds a separate entry of the source. Bridge positions count the residues as written; N and C are the ends. Peptide text beside a SMILES is read from it.

Assays:
MCF7 = assay: Cancer cell proliferation, MCF7; type: cell-based
[1] = test system: 3T3-L1 and IR-transfected L6 myoblasts; conditions: cited from earlier work
C2C12 cells = assay: MTT assay in C2C12 cells; type: cell-based
Experimental: To examine the function of […] on cell viability and growth, an MTT assay was performed in C2C12 cells.

IR E697A = target: T1, IR E697A (Homo sapiens, UniProt P06213, E724A); assay: IR activation assay in 293 FT cells, IR E697A mutant; type: cell-based; conditions: 10 nM for 10 min
T1 construct: expressed in transfected cells; host or cells: 293 FT cells
T1 sequence (P06213 28-1370 isoform P06213-2 E724A limits assumed): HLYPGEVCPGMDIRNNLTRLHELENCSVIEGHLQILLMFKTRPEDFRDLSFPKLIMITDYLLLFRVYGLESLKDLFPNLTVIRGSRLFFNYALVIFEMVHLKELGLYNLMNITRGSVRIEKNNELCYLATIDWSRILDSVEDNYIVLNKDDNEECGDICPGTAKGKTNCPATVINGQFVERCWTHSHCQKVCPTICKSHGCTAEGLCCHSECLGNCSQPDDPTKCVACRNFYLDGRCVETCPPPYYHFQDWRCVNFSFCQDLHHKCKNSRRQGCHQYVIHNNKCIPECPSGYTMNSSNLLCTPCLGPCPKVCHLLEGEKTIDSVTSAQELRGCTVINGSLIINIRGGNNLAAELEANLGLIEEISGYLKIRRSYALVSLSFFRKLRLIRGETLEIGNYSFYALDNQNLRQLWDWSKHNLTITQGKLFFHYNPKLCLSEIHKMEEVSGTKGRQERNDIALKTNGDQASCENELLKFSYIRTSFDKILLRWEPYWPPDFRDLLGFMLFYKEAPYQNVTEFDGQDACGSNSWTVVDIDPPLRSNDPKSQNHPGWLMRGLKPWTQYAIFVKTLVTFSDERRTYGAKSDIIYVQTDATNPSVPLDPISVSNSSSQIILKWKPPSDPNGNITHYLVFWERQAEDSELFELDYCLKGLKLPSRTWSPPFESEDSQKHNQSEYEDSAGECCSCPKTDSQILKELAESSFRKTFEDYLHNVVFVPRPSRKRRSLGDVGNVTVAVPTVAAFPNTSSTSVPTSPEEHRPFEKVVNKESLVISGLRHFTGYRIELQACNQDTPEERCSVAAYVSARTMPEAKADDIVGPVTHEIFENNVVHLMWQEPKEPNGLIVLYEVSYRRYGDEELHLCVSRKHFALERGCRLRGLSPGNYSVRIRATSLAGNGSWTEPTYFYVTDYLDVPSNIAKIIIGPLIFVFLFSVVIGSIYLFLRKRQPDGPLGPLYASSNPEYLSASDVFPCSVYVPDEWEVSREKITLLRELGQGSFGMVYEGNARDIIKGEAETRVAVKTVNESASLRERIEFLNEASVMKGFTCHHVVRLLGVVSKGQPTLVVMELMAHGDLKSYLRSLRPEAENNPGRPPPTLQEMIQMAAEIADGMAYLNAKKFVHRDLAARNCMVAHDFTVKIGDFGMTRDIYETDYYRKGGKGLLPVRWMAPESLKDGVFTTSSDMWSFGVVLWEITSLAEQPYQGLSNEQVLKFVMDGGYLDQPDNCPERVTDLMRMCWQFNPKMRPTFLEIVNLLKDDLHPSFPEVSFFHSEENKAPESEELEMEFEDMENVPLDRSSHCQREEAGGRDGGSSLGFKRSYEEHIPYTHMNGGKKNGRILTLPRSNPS
T1 sequence (P06213 763-1382 partner limits assumed): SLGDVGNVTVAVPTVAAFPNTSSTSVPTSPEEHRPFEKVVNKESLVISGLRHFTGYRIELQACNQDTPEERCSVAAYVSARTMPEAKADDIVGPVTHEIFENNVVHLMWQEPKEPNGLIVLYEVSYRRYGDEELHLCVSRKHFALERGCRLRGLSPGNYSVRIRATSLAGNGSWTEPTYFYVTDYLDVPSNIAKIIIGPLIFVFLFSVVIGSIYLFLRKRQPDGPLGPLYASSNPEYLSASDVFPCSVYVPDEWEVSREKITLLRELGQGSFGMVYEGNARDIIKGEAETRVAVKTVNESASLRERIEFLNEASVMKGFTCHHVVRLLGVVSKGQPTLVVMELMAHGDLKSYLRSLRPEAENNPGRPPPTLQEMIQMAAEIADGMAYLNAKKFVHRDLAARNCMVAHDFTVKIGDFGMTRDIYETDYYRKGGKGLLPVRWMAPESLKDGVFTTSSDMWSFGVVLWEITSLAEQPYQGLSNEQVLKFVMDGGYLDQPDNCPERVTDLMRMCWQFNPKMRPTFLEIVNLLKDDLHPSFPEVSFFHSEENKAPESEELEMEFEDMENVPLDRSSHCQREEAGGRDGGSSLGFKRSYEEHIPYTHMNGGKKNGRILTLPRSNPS

[2] = target: insulin-like growth factor 1 receptor (IGF1R) (Homo sapiens, UniProt P08069); conditions: previous studies; cited from earlier work
Chain of insulin-like growth factor 1 receptor (IGF1R) (P08069 31-736 limits assumed, species assumed): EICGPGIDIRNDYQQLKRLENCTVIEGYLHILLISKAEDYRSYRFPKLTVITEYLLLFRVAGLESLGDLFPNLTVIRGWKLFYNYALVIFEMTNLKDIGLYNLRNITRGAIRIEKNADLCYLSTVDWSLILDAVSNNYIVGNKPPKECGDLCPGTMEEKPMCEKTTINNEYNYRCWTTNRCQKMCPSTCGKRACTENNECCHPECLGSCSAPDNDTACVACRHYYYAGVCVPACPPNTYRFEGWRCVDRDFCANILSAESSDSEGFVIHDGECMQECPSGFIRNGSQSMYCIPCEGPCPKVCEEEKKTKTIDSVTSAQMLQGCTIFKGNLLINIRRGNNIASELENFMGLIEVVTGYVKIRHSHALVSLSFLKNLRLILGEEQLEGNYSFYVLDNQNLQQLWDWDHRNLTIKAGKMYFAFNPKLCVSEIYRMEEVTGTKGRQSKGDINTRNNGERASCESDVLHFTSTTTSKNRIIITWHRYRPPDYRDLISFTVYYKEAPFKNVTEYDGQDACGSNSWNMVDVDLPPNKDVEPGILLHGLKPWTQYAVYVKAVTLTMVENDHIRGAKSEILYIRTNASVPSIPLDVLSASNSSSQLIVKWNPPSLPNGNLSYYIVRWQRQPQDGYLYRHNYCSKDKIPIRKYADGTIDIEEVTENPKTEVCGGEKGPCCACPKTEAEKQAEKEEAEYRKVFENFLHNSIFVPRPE

IR signaling = assay: Insulin signaling in vivo (liver, skeletal muscle, WAT lysates, western blot); parameters: species or system mice
Experimental: 2-3 months old male mice were fasted overnight. […] Livers were removed at 3 min after injection. White adipose tissue and skeletal muscles were removed at 5 min and 7 min after injection, respectively. Tissues were mixed with the lysis buffer B supplemented with complete Protease Inhibitor Cocktail (Roche), PhosSTOP (Sigma), and 25 U/ml turbo nuclease (Accelagen), homogenized with FisherbrandTM Bead Mill homogenizer, and then incubated on ice for 1 hr. After centrifuge at 20,817 g at 4° C. for 30 min, the concentrations of cell lysate were measured using Micro BCA Protein Assay Kit (Thermo Scientific). The lysates were then analyzed by quantitative western blotting.

IR R345A = target: T2, IR R345A (Homo sapiens, UniProt P06213, R372A); assay: IR activation assay in 293 FT cells, IR R345A mutant; type: cell-based; conditions: 10 nM for 10 min
T2 construct: expressed in transfected cells; host or cells: 293 FT cells
T2 sequence (P06213 28-1370 isoform P06213-2 R372A limits assumed): as the sequence (P06213 28-1370 isoform P06213-2 E724A limits assumed) above, with R345A, A697E counted along it
T2 sequence (P06213 763-1382 partner limits assumed): as the sequence (P06213 763-1382 partner limits assumed) above

Insulin tolerance test = type: in vivo, mice; conditions: intraperitoneal
Experimental: Insulin tolerance tests were performed as described previously with some modification. Briefly, 2-3 months old male mice were fasted for 2 hr. and their blood glucose levels (T=0) were measured with tail bleeding using a glucometer (AlphaTRAK). After then, mice were injected intraperitoneally with Humulin (6 nmol/kg body weight), S597 (9 nmol/kg), S597-S20D (9 nmol/kg), S597-W6A (9 nmol/kg), S597-F27A (9 nmol/kg), or S597-N20 (27 nmol/kg), and their blood glucose levels were measured at the indicated time points after injection.

full-length IGF1R = assay: In vitro competition assay for full-length IGF1R; type: binding
IR R14W = target: T3, IR R14W (Homo sapiens, UniProt P06213, R41W); assay: IR activation assay in 293 FT cells, IR R14W mutant; type: cell-based; conditions: 10 min
T3 construct: expressed in transfected cells; host or cells: 293 FT cells
T3 sequence (P06213 28-1370 isoform P06213-2 R41W limits assumed): as the sequence (P06213 28-1370 isoform P06213-2 E724A limits assumed) above, with R14W, A697E counted along it
T3 sequence (P06213 763-1382 partner limits assumed): as the sequence (P06213 763-1382 partner limits assumed) above

IR K484E/L552A = target: T4, IR K484E/L552A (Homo sapiens, UniProt P06213, K511E/L579A); assay: IR activation assay in 293 FT cells, IR K484E/L552A double mutant; type: cell-based; conditions: 10 nM for 10 min
T4 construct: expressed in transfected cells; host or cells: 293 FT cells
T4 sequence (P06213 28-1370 isoform P06213-2 K511E/L579A limits assumed): as the sequence (P06213 28-1370 isoform P06213-2 E724A limits assumed) above, with K484E, L552A, A697E counted along it
T4 sequence (P06213 763-1382 partner limits assumed): as the sequence (P06213 763-1382 partner limits assumed) above

CAL33 = assay: IR signaling in cancer cells, CAL33; type: cell-based; conditions: 10, 100 or 300 nM for 10 minutes
IR N15K = target: T5, IR N15K (Homo sapiens, UniProt P06213, N42K); assay: IR activation assay in 293 FT cells, IR N15K mutant; type: cell-based; conditions: 10 min
T5 construct: expressed in transfected cells; host or cells: 293 FT cells
T5 sequence (P06213 28-1370 isoform P06213-2 N42K limits assumed): as the sequence (P06213 28-1370 isoform P06213-2 E724A limits assumed) above, with N15K, A697E counted along it
T5 sequence (P06213 763-1382 partner limits assumed): as the sequence (P06213 763-1382 partner limits assumed) above

SREBP1 = assay: Immunofluorescence assay for SREBP1 translocation in primary hepatocytes; type: cell-based, mouse; conditions: 100 nM for 30 min
Experimental: Primary hepatocytes were as described in the primary hepatocyte isolation section. […] Cells were fixed with 4% paraformaldehyde for 10 min. The fixed cells were incubated with PBS for 30 min and 3% BSA in PBS with 0.1% Triton X-100 (0.1% PBST) for 1 hr., and then treated with anti-SREBP1 antibodies (20B12, Millipore, Cat. #MABS1987, 1:200) in 3% BSA in 0.1% PBST at 4° C. overnight. After being washed, cells were incubated with secondary antibodies (Alexa Fluor 488 goat anti-rabbit, Invitrogen, Cat. #A11008, 1:200) for 1 hr. Cells were washed and mounted on microscope slides in ProLong Gold Antifade reagent with DAPI (Invitrogen). Images were acquired as a series of 0.2 μm stacks with a Leica Thunder Imager (Leica Microsystems Inc.). Raw images were deconvolved using LAS X Software (Leica Microsystems Inc.). The nuclear edges and the nuclear SREBP1 signal were defined with Image J. Identical exposure times and magnifications were used for all comparative analyses.

[3] = Chronic treatment by osmotic minipump; type: in vivo, mice
From the text: 2-month-old male mice were implanted with osmotic minipump releasing Humulin (0.2 U/day), S597 (0.3 U/day), or S597-S20D (0.3 U/day). […] Hepes, N=7; Humulin, N=8; S597, N=7; S597-S20D, N=4. […] Hepes, N=7; Humulin, N=8; S597, N=9; S597-S20D, N=4. Two-way ANOVA followed by Tukey's multiple comparisons test. […] Mean±SEM. Hepes, N=8; Humulin, N=7; S597, N=9; S597-S20D, N=5. […] Hepes, N=4; Humulin and S597 analogs, N=5. two-tailed Student's t-test. All graphs show Mean±SEM.
To examine the long-term effects of S597 in vivo, C57BL/6J WT mice were implanted with osmotic minipumps releasing either HEPES, Humulin, or mimetics. […] Consistent with previous work, chronic treatment of Humulin increased body weight (FIGS. 11E, 11F).

T47D = assay: Cancer cell proliferation, T47D; type: cell-based
IR D707A = IR D707A (Homo sapiens, UniProt P06213, D734A); assay: IR activation assay in 293 FT cells, IR D707A mutant; type: cell-based; parameters: expressed in transfected cells; host or cells: 293 FT cells; conditions: 10 min
Chain of IR D707A (P06213 28-1370 isoform P06213-2 D734A limits assumed): as the sequence (P06213 28-1370 isoform P06213-2 E724A limits assumed) above, with A697E, D707A counted along it
Chain of IR D707A (P06213 763-1382 partner limits assumed): as the sequence (P06213 763-1382 partner limits assumed) above

IR = IR (Homo sapiens, UniProt P06213); conditions: cited from earlier work
Chain of IR (P06213 28-758 limits assumed): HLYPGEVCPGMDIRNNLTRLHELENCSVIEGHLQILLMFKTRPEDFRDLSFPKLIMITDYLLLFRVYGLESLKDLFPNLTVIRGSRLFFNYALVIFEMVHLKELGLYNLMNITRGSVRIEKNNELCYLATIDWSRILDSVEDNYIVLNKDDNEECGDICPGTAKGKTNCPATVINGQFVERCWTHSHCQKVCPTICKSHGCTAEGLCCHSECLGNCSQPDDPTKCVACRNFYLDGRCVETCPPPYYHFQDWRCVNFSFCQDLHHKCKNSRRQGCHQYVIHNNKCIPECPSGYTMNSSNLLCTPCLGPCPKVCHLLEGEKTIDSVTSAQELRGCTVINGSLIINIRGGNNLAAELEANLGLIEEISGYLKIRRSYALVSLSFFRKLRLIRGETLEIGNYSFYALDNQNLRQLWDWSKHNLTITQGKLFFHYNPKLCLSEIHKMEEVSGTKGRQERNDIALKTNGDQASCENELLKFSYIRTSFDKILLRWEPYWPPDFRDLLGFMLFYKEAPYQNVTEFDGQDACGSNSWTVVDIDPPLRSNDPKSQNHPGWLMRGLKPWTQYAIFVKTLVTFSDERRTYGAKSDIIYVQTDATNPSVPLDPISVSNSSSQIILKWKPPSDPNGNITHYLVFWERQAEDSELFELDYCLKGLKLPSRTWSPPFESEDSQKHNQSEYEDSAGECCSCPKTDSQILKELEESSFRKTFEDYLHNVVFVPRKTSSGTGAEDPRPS
Chain of IR (P06213 763-1382 partner limits assumed): as the sequence (P06213 763-1382 partner limits assumed) above

[4] = WAT, compared to vehicle treated conditions
[5] = liver, injection via inferior vena cava
[6] = skeletal muscle, injection via inferior vena cava

For CC[C@H](C)[C@H](NC(=O)[C@H](CCC(N)=O)NC(=O)[C@H](C)NC(=O)[C@H](Cc1c[nH]c2ccccc12)NC(=O)[C@H](CCC(=O)O)NC(=O)[C@H](CCC(=O)O)NC(=O)[C@H](CCC(=O)O)NC(=O)[C@H](CC(C)C)NC(=O)[C@H](CO)NC(C)=O)C(=O)N[C@@H](CCC(=O)O)C(=O)N[C@H]1CSSC[C@@H](C(=O)N2CCC[C@H]2C(=O)N[C@@H](CO)C(=O)N[C@@H](CCC(=O)O)C(=O)N[C@@H](CO)C(=O)N[C@@H](Cc2ccccc2)C(=O)N[C@@H](Cc2ccc(O)cc2)C(=O)N[C@@H](CC(=O)O)C(=O)N[C@@H](Cc2c[nH]c3ccccc23)C(=O)N[C@@H](Cc2ccccc2)C(=O)N[C@@H](CCC(=O)O)C(=O)N[C@@H](CCCNC(=N)N)C(=O)N[C@@H](CCC(N)=O)C(=O)N[C@@H](CC(C)C)C(N)=O)NC(=O)CNC(=O)[C@H](CCCNC(=N)N)NC(=O)CNC(=O)[C@H](Cc2ccc(O)cc2)NC(=O)[C@H](C(C)C)NC(=O)[C@H](CCC(=O)O)NC1=O [S597] (Ac-SLEEEWAQIECEVYGRGCPSESFYDWFERQL-NH2; disulfide 11-18), the cell proliferation (MCF7) is given as “did not promote”, the MAPK pathway [1] is given as “largely inactive” and the PI3K-AKT pathway [1] is given as “selectively activates”. The “cell viability and growth” value (C2C12 cells) was “does not promote cell proliferation as efficiently as insulin”, the “IR activation (pY IR)” value (IR E697A) was “fully activated” and the “activation of IGF1R” value [2] was “does not activate”. For the same molecule, the pAKT level (IR signaling; [4]) was “significantly increased”, the pERK level (IR signaling; [4]) was “neither insulin nor S597 had a statistically significant effect” and the “pY IR level” value (IR signaling; WAT, injection via inferior vena cava) was “robust auto-phosphorylation of the IR, albeit with lower potency than insulin”. For the same molecule, the pERK level (IR signaling; [5]) was “increased”, the “pY IR level” value (IR signaling; [5]) was “robust auto-phosphorylation of the IR, albeit with lower potency than insulin” and the pAKT level (IR signaling; [6]) was “significantly increased”. The pERK level (IR signaling; [6]) was “less potent; also recorded: not in the skeletal muscle”, the “pY IR level” value (IR signaling; [6]) was “significantly increased” and the “IR activation (pY IR)” value (IR R345A) was “fully activated”. The “blood glucose levels in ITT” value (Insulin tolerance test; FIGS. 10A, 8F, 8G) was “lowered”, the “blood glucose in insulin tolerance assays” value (Insulin tolerance test; FIGS. 12B, 12C) was “lowered blood glucose in mice as effectively as insulin” and the “binding to IGF1R” value (full-length IGF1R) was “do not bind”. The “IR activation (pY IR)” value (IR R14W) was “fully activated”, the “IR activation (pY IR)” value (IR K484E/L552A) was “could not be activated efficiently” and the IR signaling (CAL33) was “failed to activate”. The “IR activation (pY IR)” value (IR N15K) was “fully activated”, the “nuclear translocation of SREBP1” value (SREBP1) was “stimulated to the same level” and the body weight gain [3] was “gained less than control mice”. The “weight gain and fat mass” value ([3]; FIG. 11, preliminary data) was “reduces weight gain and fat mass relative to insulin”, the cell proliferation (T47D) was “did not promote” and the “IR activation (pY IR)” value (IR D707A) was “fully activated”. For the same molecule, the “affinity for the IR” value (IR) was “sub-micromolar”.
